# “Also recorded” adds a separate entry of the source. Read-outs that look alike come from different tables or passages of the source.
# How the values were obtained:
# [1] = system: SN12C; assay: NCI human cancer cell line screen (COMPARE screening), Renal SN12C; assay type: cell-based
# Source text: (§1) Considering the diversity of cancer in terms of cell type, morphology, growth rate and other cellular characteristics, the U.S. National Cancer Institute (NCI) has developed a “disease-oriented” approach to anticancer activity screening (M. R. Boyd, in “Principle of Practice of Oncology” […]. Rosenberg (Eds.) Vol. 3, PPO Update, No. 10, 1989). This in vitro prescreening system is based on the measurement of anticancer cytotoxicity against human cancer cell line panels consisting of approximately 60 cell lines of major human cancers (including leukemia and slower growing tumor cells such as lung, colon, breast, skin, kidney, etc.) and is referred hereinafter as “COMPARE” screening. An important advantage of the new in vitro screening panels is the opportunity to facilitate identification of compounds that are selectively more cytotoxic to cells of certain types of cancers, thus increasing the ability to select compounds for further study with respect to specific diseases. The indenoisoquinolines were examined for antiproliferative activity against the human cancer cell lines in the National Cancer Institute screen (COMPARE screening), in which the activity of each compound was evaluated with approximately […] different cancer cell lines of diverse tumor origins.
# [2] = system: approximately 55 different cancer cell lines of diverse tumor origins; assay: NCI screen mean graph midpoint over all cell lines tested; assay type: cell-based, human; details: for IC50: average GI50 for all cell lines tested (approximately 55), values outside test range taken as 10^-8 or 10^-4 molar, read-out: MGM (mean graph midpoint)
# Source text: as §1
# [3] = system: UACC-62; assay: NCI human cancer cell line screen (COMPARE screening), Melanoma UACC-62; assay type: cell-based; details: UACC-62, concentration causing 50% growth inhibition, read-out: Cytotoxicity (G150 in μM) Melanoma UACC-62
# Source text: as §1
# [4] = system: MDA-MB-435; assay: NCI human cancer cell line screen (COMPARE screening), Breast MDA-MB-435; assay type: cell-based
# Source text: as §1
# [5] = system: supercoiled SV40 DNA; assay: SV40 DNA unwinding assay; assay type: biochemical
# Description: With some of the compounds (e.g. 27), the activity seemed to increase initially as the concentration was increased, but then it declined at higher concentrations. […] The unwinding assay using supercoiled DNA in the presence of topoisomerase I is a simple procedure to detect DNA intercalation.
# After electrophoresis, DNA bands were stained in 10 μg/mL of ethidium bromide and visualized by transillumination with UV light (300 nm).
# [6] = system: human topoisomerase II; assay: Topoisomerase II-mediated DNA cleavage assay (5'-end-labeled human c-myc DNA); assay type: biochemical
# [7] = target: T1, topoisomerase I (Homo sapiens, UniProt P11387); assay: Topoisomerase I-mediated DNA cleavage assay (3'-end-labeled 161 bp pBluescript SK(-) fragment); assay type: biochemical; details: for Top 1 Cleavage: relative to the activity of 1 μM camptothecin
# T1 sequence (P11387 1-765): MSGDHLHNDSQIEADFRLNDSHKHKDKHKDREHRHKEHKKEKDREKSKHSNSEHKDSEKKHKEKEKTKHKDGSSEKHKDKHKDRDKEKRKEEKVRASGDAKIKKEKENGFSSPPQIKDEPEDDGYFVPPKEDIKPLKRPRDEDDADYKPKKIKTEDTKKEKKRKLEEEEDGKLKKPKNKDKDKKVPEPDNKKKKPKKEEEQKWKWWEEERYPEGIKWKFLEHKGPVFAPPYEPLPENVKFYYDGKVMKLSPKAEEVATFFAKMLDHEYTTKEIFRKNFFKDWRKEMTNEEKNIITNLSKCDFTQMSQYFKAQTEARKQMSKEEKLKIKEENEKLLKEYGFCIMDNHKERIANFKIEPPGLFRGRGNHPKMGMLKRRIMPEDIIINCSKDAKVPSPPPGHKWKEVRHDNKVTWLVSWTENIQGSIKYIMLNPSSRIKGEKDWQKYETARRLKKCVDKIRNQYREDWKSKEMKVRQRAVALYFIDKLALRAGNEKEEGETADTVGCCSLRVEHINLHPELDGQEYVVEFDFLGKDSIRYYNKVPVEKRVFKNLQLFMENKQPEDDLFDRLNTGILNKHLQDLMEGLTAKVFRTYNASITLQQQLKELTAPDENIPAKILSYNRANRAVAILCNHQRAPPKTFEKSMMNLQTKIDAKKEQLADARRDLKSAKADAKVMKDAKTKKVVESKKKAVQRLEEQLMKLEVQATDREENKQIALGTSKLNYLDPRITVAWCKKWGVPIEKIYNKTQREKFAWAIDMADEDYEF
# Description: Topoisomerase I-Mediated DNA Cleavage Reactions Using 3′-End-labeled 161 BP Plasmid DNA
# The 161 bp fragment from pBluescript SK(−) phagemid DNA (Stratagene, La Jolla, Calif.) was cleaved with the restriction endonuclease Pvu II and Hind III (New England Biolabs, Beverly, Mass.) in supplied NE buffer 2 (10 μL reactions) for 1 h at 37° C., separated by electrophoresis in a 1% agarose gel made in 1×TBE buffer. The 161 bp fragment was eluted from the gel slice (centrilutor by Amicon) and concentrated in a centricon 50 centrifugal concentrator (Amicon, Beverly, Mass.). Approximately 200 ng of the fragment was 3′-end-labeled at the Hind III site by fill-in reaction with [alpha-^32P]-dCTP and 0.5 mM dATP, dGTP, and dTTP, in React 2 buffer (50 mM Tris-HCl, pH 8.0, […], 50 mM NaCl) with 0.5 units of DNA polymerase I (Klenow fragment). Labeling reactions were followed by phenol-chloroform extraction and ethanol precipitation. The resulting 161 bp 3′-endlabeled DNA fragment was resuspended in water. Aliquots (approximately 50,000 dpm/reaction) were incubated with topoisomerase I at 30° C. for 15 min in the presence of the indicated drug. Reactions were terminated by adding 0.5% SDS. After ethanol precipitation, the samples were resuspended in loading buffer (80% formamide, 10 mM sodium hydroxide, 1 mM sodium EDTA, 0.1% xylene cyanol, and 0.1% bromophenol blue, pH 8.0), and separated in a denaturing gel (16% polyacrylamide, 7 M urea) run at 51° C. The gel was dried and visualized by using a Phosphoimager and ImageQuant software (Molecular Dynamics, Sunnyvale, Calif.).
# [8] = system: DU-145; assay: NCI human cancer cell line screen (COMPARE screening), Prostate DU-145; assay type: cell-based
# Source text: as §1
# [9] = target: T2, topoisomerase I cleavage complexes (Homo sapiens, UniProt P11387); assay: Salt reversal of topoisomerase I cleavage complexes; assay type: biochemical; details: increasing salt concentration
# T2 sequence (P11387 1-765): T1 sequence (P11387 1-765)
# [10] = system: HOP-62; assay: NCI human cancer cell line screen (COMPARE screening), Lung HOP-62; assay type: cell-based
# Source text: as §1
# [11] = system: SF-539; assay: NCI human cancer cell line screen (COMPARE screening), CNS SF-539; assay type: cell-based
# Source text: as §1
# [12] = system: HCT-116; assay: NCI human cancer cell line screen (COMPARE screening), Colon HCT-116; assay type: cell-based
# Source text: as §1
# [13] = system: OVCAR-3; assay: NCI human cancer cell line screen (COMPARE screening), Ovarian OVCAR-3; assay type: cell-based
# Source text: as §1
# [14] = Homo sapiens, SN12C, concentration causing 50% growth inhibition, read-out: Cytotoxicity (G150 in μM) Renal SN12C
# [15] = Homo sapiens, MDA-MB-435, concentration causing 50% growth inhibition, read-out: Cytotoxicity (G150 in μM) Breast MDA-MB-435
# [16] = Homo sapiens, OVCAR-3, concentration causing 50% growth inhibition, read-out: Cytotoxicity (G150 in μM) Ovarian OVCAR-3
# [17] = Homo sapiens, DU-145, concentration causing 50% growth inhibition, read-out: Cytotoxicity (G150 in μM) Prostate DU-145
# [18] = Homo sapiens, HOP-62, concentration causing 50% growth inhibition, read-out: Cytotoxicity (G150 in μM) Lung HOP-62
# [19] = Homo sapiens, SF-539, concentration causing 50% growth inhibition, read-out: Cytotoxicity (G150 in μM) CNS SF-539
# [20] = Homo sapiens, HCT-116, concentration causing 50% growth inhibition, read-out: Cytotoxicity (G150 in μM) Colon HCT-116
Compound,induction of topoisomerase II cleavage complexes [6],reversal of induced cleavage sites by salt treatment [9],activity in the topoisomerase I cleavage assay (in words) [7],Top 1 Cleavage [7],"IC50 [1, 14] [µM]",IC50 ([2]; Homo sapiens) [µM],IC50 ([3]; Homo sapiens) [µM],"IC50 [4, 15] [µM]","IC50 [13, 16] [µM]","IC50 [8, 17] [µM]","IC50 [10, 18] [µM]","IC50 [12, 20] [µM]",other results
"COc1cc2c3c(n(C)c(=O)c2cc1OC)-c1cc2c(cc1C3=O)OCO2 [Compound 1, reference compound]",no effect,reversed by salt treatment,induce DNA cleavage in the presence of topoisomerase I; also recorded: good activity,++ (those compounds having greater than 50% of the activity of 1 μM camptothecin),,,,,,,,,"IC50 ([1]; SN12C, concentration causing 50% growth inhibition, read-out: Cytotoxicity (G150 in μM) Renal SN12C): 68 µM; IC50 [2]: 20 µM; IC50 [3]: 4.2 µM; IC50 ([4]; MDA-MB-435, concentration causing 50% growth inhibition, read-out: Cytotoxicity (G150 in μM) Breast MDA-MB-435): 96 µM; DNA unwinding ([5]; supercoiled DNA in the presence of topoisomerase I): did not produce detectable DNA unwinding; also recorded: does not appear to unwind DNA; IC50 ([8]; DU-145, concentration causing 50% growth inhibition, read-out: Cytotoxicity (G150 in μM) Prostate DU-145): 37 µM; IC50 ([10]; HOP-62, concentration causing 50% growth inhibition, read-out: Cytotoxicity (G150 in μM) Lung HOP-62): 1.3 µM; IC50 ([11]; SF-539, concentration causing 50% growth inhibition, read-out: Cytotoxicity (G150 in μM) CNS SF-539): 41 µM; IC50 ([12]; HCT-116, concentration causing 50% growth inhibition, read-out: Cytotoxicity (G150 in μM) Colon HCT-116): 35 µM"
"CCCCn1c2c(c3ccccc3c1=O)C(=O)c1cc3c(cc1-2)OCO3 [Compound 13b, 6-(1-Butyl)-5,6-dihydro-5,11-diketo-8,9-methylenedioxy-11H-indeno[1,2-c]isoquinoline]",no effect,,,+ (those compounds having between 20% and 50% of the activity of 1 μM camptothecin),37,30,8.2,> 100,94,38,17,2.9,"IC50 [11, 19]: 9 µM"
"C=CCn1c2c(c3cc(OC)c(OC)cc3c1=O)C(=O)c1cc3c(cc1-2)OCO3 [Compound 13c, 6-Allyl-2,3-dimethoxy-5,6-dihydro-5,11-oxo-8,9-(methylenedioxy)-11H-indeno[1,2-c]isoquinoline]",no effect,reversed by salt treatment,rival the topoisomerase activity of 1,+ (those compounds having between 20% and 50% of the activity of 1 μM camptothecin),,,,,,,,,IC50 [1]: 2.6 µM; IC50 [2]: 4.2 µM; IC50 [4]: 5.2 µM; IC50 [13]: 6.6 µM; IC50 [8]: 3.2 µM; IC50 [10]: 3.4 µM; IC50 [11]: 2.2 µM; IC50 [12]: 2.3 µM
"CCn1c2c(c3cc(OC)c(OC)cc3c1=O)C(=O)c1cc3c(cc1-2)OCO3 [Compound 13k, 6-Ethyl-5,6-dihydro-5,11-diketo-2,3-dimethoxy-8,9-methylenedioxy-11H-indeno[1,2-c]isoquinoline]",no effect,,very weak activity,± (those compounds having less than 20% of the activity of 1 μM camptothecin),3.6,2.4,2.1,2.6,3,2.3,2.2,2.6,"cytotoxicity (MGM) relative to lead compound 1 ([2]; comparison in words): lower MGM than the lead compound 1; IC50 [11, 19]: 2 µM"
"COC1=CC2=C(CN1OC)C1=C(c3cc4c(cc3C1=O)OCO4)C(CCCC(C)O)C2=O (stereo not shown) [Compound 19b, 5,6-Dihydro-6-(4-hydroxypent-1-yl)-5,11-diketo-2,3-dimethoxy-8,9-methylenedioxy-11H-indenoisoquinoline]",,,,,,,,,,,,,melting point: 288 to 290 °C
"O=C(O)CCCn1c2c(c3ccccc3c1=O)C(=O)c1ccccc1-2 [Compound 26, 6-(3-Carboxy-1-propyl)-5,6-dihydro-5,11-diketo-11H-indeno[1,2-c]isoquinoline]",induced topoisomerase II cleavage complexes,reversed by salt treatment,most potent; also recorded: rival the topoisomerase activity of 1,++ (those compounds having greater than 50% of the activity of 1 μM camptothecin),27,48,73,> 100,> 100,48,87,40,DNA unwinding at higher concentrations ([5]; at higher concentrations): does unwind DNA
"CC[C@@]1(O)C(=O)OCc2c1cc1n(c2=O)Cc2cc3ccccc3nc2-1 [Compound 34, camptothecin, reference compound]",,reversed by salt treatment,,,,,,,,,,,

# From patent US6509344B1, “Indenoisoquinolines as antineoplastic agents” (The United States of America as represented by the …, priority 1998, dated 2003)
